Series [1] has as its system A375 human melanoma xenografts. Briefly: A375 human melanoma xenograft study 1 (tumor growth delay, toxicity). The following applies: for share of mice with CR responses: q3d×4. (A xenograft is tissue or cells of one species grown in another, often human tumour cells in immunodeficient mice.)
Text: The following study evaluates two intravenous formulations according to the present invention against human tumor xenografts in athymic nude mice. The study used the A375 human melanoma xenograft model to compare the in vivo antitumor efficacy of I.V. 9-nitro-camptothecin, in vehicles containing IDD-P which provides a particulate suspension of 9-nitro-camptothecin, and IDD-D which provides a droplet suspension of 9-nitro-camptothecin, to the efficacy of oral 9-nitro-camptothecin and intraperitoneal CAMPTOSAR®, HYCAMTIN®, and DTIC®.
In order to assess antitumor efficacy, groups of athymic nude mice (n=10) bearing ˜72-mg A375 melanomas were treated intravenously on the 5/2/5 schedule with 9-nitro-camptothecin in IDD-P at 3.0 mg/kg or 1.5 mg/kg and 9-nitro-camptothecin in IDD-D at 2.0 mg/kg or 1.0 mg/kg.
Husbandry: Female nude mice were 16 weeks of age (NCR-nufBr; Taconic Farms) for the A375 study. The mice were fed ad libitum water (reverse osmosis, 1 ppm Cl) and autoclaved Prolab NIH-31 M/5% Rodent Diet consisting of 18% protein, 5% fat, 6% fiber, and 8% ash. Mice were housed in static microisolators on a 12-hour light cycle at 21-22° C. (70-72° F.) and 40%-60% humidity.
Tumor Implantation: An A375 melanoma fragment (1 mm 3 ) was implanted subcutaneously in the flank of each nude mouse. When the tumors reached the 60-112 mg size range, the mice were sorted into treatment groups (on Day 1) such that the group mean tumor sizes ranged from 71.3 mg-72.5 mg. Estimated tumor weight was calculated using the formula: [formula]
Drug Formulations: IDD-P with a mean particle size of 0.07-0.06 mm and IDD-D with a mean particle size of 0.15 mm were prepared for the study by RTP Pharma Inc. For this, the 9-nitro-camptothecin suspensions were diluted with water and vehicle to provide doses of 3 mg/kg and 1.5 mg/kg in 33% IDD-P, and doses of 2 mg/kg and 1 mg/kg in 100% and 50% IDD-D, respectively. After dilution, 9-nitro-camptothecin suspensions were mixed thoroughly by gentle agitation and stored at 2-8° C. For its oral formulation, 9-nitro-camptothecin was dissolved in DMA (N,N-dimethylacetamide, SIGMA) and diluted with D5W to yield a final DMA concentration of 3%. CAMPTOSAR®, DTIC®, and HYCAMTIN® were obtained as the marketed drugs and solutions were prepared fresh on the day of dosing. CAMPTOSAR® (irinotecan, Pharmacia & Upjohn Company, 20 mg/ml) and DTIC® (dacarbazine, Bayer Corporation, 20 mg/ml) were diluted with D5W. HYCAMTIN® (topotecan, SmithKlein Beecham) was reconstituted with water at 1 mg/ml.
Treatments: Volumes of 0.20 ml per 20-g mouse, body-weight adjusted, were administered once daily. Tumor-bearing athymic nude mice were matched on Day 1 into 13 groups of ten animals and drug administration was initiated. The I.V. formulations of 9-nitro-camptothecin were given once daily on a 5/2/5 schedule as shown in the protocol summary shown in FIG. 4. Oral 9-nitro-camptothecin doses were given on a q3d×4 schedule (Days 1, 4, 8, and 11). Three reference drugs were administered I.P.: CAMPTOSAR® was given in three doses at weekly intervals (qwk×3); HYCAMTIN® was given in four doses at four-day intervals (q4d×4); and DTIC® was given in five consecutive daily doses (qd×5). The tumor growth control group for these reference treatments received no treatment (Group 1). The 9-nitro-camptothecin vehicle: 33.3% IDD-P, 100% IDD-D, and 3% DMA, was administered to vehicle control Groups 2-4, respectively.
Tumor Growth Endpoint: The tumor growth delay (TGD) method was used to assess efficacy. Tumor dimensions were measured twice weekly until the experiment was terminated on Day 62.
The target in series [2] is human serum albumin (HSA) (Homo sapiens, UniProt P02768). The settings on record: PBS at pH 7.4; cited from earlier work.
The conditions of series [3]: human plasma, pH 7.4, 37° C.; cited from earlier work.
For series [4] the following is noted: whole blood; cited from earlier work.
[5] abbreviates: 2.0 mg/kg p.o., q3d×4, Group 13, Day 62.
Setting [6] is: 4.0 mg/kg p.o., q3d×4, Group 12, Day 62.

Chain of human serum albumin (HSA) (P02768 25-609): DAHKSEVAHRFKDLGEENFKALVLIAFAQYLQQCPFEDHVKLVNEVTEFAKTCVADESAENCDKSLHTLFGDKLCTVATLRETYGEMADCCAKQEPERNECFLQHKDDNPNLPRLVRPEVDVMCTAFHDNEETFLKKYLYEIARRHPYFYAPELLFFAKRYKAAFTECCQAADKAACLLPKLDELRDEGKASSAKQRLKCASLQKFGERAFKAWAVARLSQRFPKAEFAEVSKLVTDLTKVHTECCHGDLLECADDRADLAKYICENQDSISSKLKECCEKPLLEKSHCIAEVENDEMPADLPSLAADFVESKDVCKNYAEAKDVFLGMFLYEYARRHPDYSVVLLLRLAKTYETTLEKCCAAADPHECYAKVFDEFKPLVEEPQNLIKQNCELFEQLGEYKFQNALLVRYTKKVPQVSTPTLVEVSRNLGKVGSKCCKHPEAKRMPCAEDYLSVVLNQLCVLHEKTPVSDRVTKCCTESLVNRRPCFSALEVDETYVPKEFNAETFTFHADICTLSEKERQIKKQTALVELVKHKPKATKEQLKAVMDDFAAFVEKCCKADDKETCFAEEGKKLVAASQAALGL

As for `CN(C)/N=N/c1[nH]cnc1C(N)=O` [DTIC®, dacarbazine], the toxic deaths entry in series [1] (150 mg/kg I.P., qd×5, Group 7, n=10) is “one and One”.

`CC[C@@]1(O)C(=O)OCc2c1cc1n(c2=O)Cc2cc3c(CN(C)C)c(O)ccc3nc2-1` [HYCAMTIN®, topotecan]: the CR responses entry in series [1] (10 mg/kg I.P., q4d×4, Group 6, Day 62) was “single and one”.

Turning to `CC[C@@]1(O)C(=O)OCc2c1cc1n(c2=O)Cc2cc3c([N+](=O)[O-])cccc3nc2-1` [9-nitro-camptothecin in 3% DMA, 9-nitro-20(S)-camptothecin], the “share of mice with CR responses” value in series [1] (2 mg/kg p.o.) and in series [1] (4 mg/kg p.o.) was 40% in each case. Moreover, the CR responses in series [1] (setting [5]) and in series [1] (setting [6]) was 4 in each case. The “PR responses (printed RP)” value in series [1] (setting [5]) amounted to 1. In addition, the figures for the SD/PD responses in series [1] (setting [5]) and in series [1] (setting [6]) were 2 and 3, respectively. For the same compound, the 62-day survivors entry is “seven” in series [1] (2.0 mg/kg p.o., q3d×4, Group 13, n=10) and “seven” in series [1] (4.0 mg/kg p.o., q3d×4, Group 12, n=10).

Regarding `CC[C@@](O)(C(=O)O)c1cc2n(c(=O)c1CO)Cc1cc3ccccc3nc1-2` [carboxylate form of camptothecin], the “affinity for HSA of carboxylate form relative to α-hydroxy lactone form” value in series [2] is 150 fold.

Turning to `CC[C@@]1(O)C(=O)OCc2c1cc1n(c2=O)Cc2cc3ccccc3nc2-1` [camptothecin, 20(S)-camptothecin], the “half-life of α-hydroxy lactone ring opening” value in series [3] is given as 11 min. Moreover, the “half-life of α-hydroxy lactone” value in series [4] is reported as 22 min.

As for `CCc1c2c(nc3ccc(OC(=O)N4CCC(N5CCCCC5)CC4)cc13)-c1cc3c(c(=O)n1C2)COC(=O)[C@]3(O)CC` [CAMPTOSAR®, irinotecan], the CR responses entry in series [1] (100 mg/kg I.P., qwk×3, Group 5, Day 62) is “single and one”.

These data come from patent publication US6534080B2, “Method for administering camptothecins via injection of pharmaceutical composition comprising coated particles of a camptothecin” (priority 2001, dated 2003).
